From PMC2743475 (Bioorganic & medicinal chemistry, 2009)

Assays:
[1] = tested on: PC-3M prostate cancer cells; settings: PC-3M cells, MTT; cited from earlier work
[2] = tested on: PC-3M prostate cancer cells; settings: mice; cited from earlier work
[3] = tested on: PC-3M prostate cancer cells; settings: PC-3M cells, spheroid disaggregation; cited from earlier work
[4] = in vivo, up to 200 mg/kg; cited from earlier work
prostate cancer cells = settings: even at 200 µM in vitro; cited from earlier work
Recombinant GSK-3β = Recombinant GSK-3β (Homo sapiens, UniProt P49841); test: in vitro GSK-3β inhibitory assay using Tau [pS396] phosphoELISA kit
Sequence of Recombinant GSK-3β (P49841 whole entry): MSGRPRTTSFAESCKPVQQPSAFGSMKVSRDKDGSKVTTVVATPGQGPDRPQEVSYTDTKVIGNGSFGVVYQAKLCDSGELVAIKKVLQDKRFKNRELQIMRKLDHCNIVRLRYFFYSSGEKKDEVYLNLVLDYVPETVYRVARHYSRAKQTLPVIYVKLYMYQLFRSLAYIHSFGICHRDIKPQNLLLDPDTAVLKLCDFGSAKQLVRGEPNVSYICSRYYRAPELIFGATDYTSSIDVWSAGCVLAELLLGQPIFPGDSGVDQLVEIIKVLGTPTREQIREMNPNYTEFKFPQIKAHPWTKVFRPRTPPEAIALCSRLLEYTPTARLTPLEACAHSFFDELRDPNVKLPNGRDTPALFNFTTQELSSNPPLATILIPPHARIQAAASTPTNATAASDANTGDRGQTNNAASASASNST

SMILES	in vitro anti-growth / proliferation [1]	cytotoxic effects at the test doses [2]	formation of tumor micrometastases in distant organs [2]	orthotopic tumor growth [2]	in vitro anti-invasive properties / invasion [3]	CNS-depressant effects [4]	cytotoxicity (prostate cancer cells)	IC50 (Recombinant GSK-3β)
O=C1NC(=O)/C(=C/c2ccc(O)cc2)N1 [Compound 1, (Z)-5-(4-hydroxybenzylidene)-hydantoin]	potent	without apparent cytotoxic effects	inhibited	decreased	potent			
CCSc1ccc(/C=C2\NC(=O)NC2=O)cc1 [Compound 2, (Z)-5-(4-(ethylthio)benzylidene)-hydantoin]	potent	without apparent cytotoxic effects	inhibited	decreased	potent			
CCN(CC)c1ccc(/C=C2\NC(=O)NC2=O)cc1 [Compound 3]						did not show CNS-depressant effects	lack of cytotoxicity	
COc1cccc(/C=C2\NC(=O)NC2=O)c1 [Compound 4]								14.1 ± 1.9 µM
